Assay results from US4528393A, “Derivatives having expectorant activity, the procedure for their preparation and the pharmaceutical compositions which contain them” (Magis Farmaceutici S.R.L., priority 1983, dated 1985).

Tests used:
[1] = Acute toxicity in the guinea pig (DL50, Litchfield and Wilcoxon method); conditions: in vivo
Procedure: (§1) where R is as defined above, in the presence of an alkaline carbonate and of a catalyst, to obtain the corresponding formula (I) compound, as defined above, which, optionally, is salified. The new formula (I) compounds and their pharmaceutically acceptable salts, which form the object of this invention, have expectorant characteristics which are very useful for therapeutic applications. […] The peak level in the blood is reached 20-40 minutes after oral administration. This determines higher concentrations of active principle. With dogs, the half-life of the new derivatives in the blood is from 25-30 hours. It is also to be underlined that the new compounds are stable in both the stomach and the intestinal tract, hydrolizing after being absorbed. The complete reliability of the new compounds was determined by evaluating their acute toxicity. Acute toxicity was studies in the mouse, rat and guinea pig, comparing with ambroxol hydrochloride. The DL50 values were calculated by following the Litchfield and Wilcoxon method (Pharm. Exp. Therap. 1949, 96,99).

[2] = Acute toxicity in the mouse (DL50, Litchfield and Wilcoxon method); type: in vivo; conditions: in vivo
Procedure: as §1

mouse = experiment: as above; type: in vivo; conditions: os
Procedure: as §1

[3] = Acute toxicity in the rat (DL50, Litchfield and Wilcoxon method); conditions: in vivo
Procedure: as §1

Compound	LD50 ([1]; ip) [mg/kg]	LD50 ([1]; po, os) [mg/kg]	LD50 ([2]; ip) [mg/kg]	LD50 ([2]; iv) [mg/kg]	DL50 (mouse) [mg/kg]	LD50 ([3]; ip) [mg/kg]	LD50 ([3]; po, os) [mg/kg]	LD50 ([2]; po, os) [mg/kg]
Nc1c(Br)cc(Br)cc1CN[C@H]1CC[C@H](O)CC1 [Ambroxol Hydrochlorate, N-(2-amino-3,5-dibromobenzyl)-trans-4-amino-cyclohexanol, reference compound]	280	1180	268	138	2750	380	13400	–
COc1ccccc1OCC(=O)O[C@H]1CC[C@H](NCc2cc(Br)cc(Br)c2N)CC1 [E/6001, N-(2-amino-3,5-dibromobenzyl)-trans-4-amino-1-(guaiacolglycolyl)-cyclohexane]	390	1650	375	194	–	532	18700	3850
COc1cc(C)ccc1OCC(=O)O[C@H]1CC[C@H](NCc2cc(Br)cc(Br)c2N)CC1 [E/6002]	400	1700	390	201	–	550	19600	4000
Cc1cccc(OCC(=O)O[C@H]2CC[C@H](NCc3cc(Br)cc(Br)c3N)CC2)c1 [E/6003, N-(2-amino-3,5-dibromobenzyl)-trans-4-amino-1-(m-cresolglycolyl)cyclohexane]	380	1600	360	187	–	510	18000	3700
Cc1ccccc1OCC(=O)O[C@H]1CC[C@H](NCc2cc(Br)cc(Br)c2N)CC1 [E/6004]	375	1610	365	187	–	500	18000	3700
Cc1ccc(OCC(=O)O[C@H]2CC[C@H](NCc3cc(Br)cc(Br)c3N)CC2)cc1 [E/6005]	380	1600	360	180	–	500	17800	3700
Cc1ccc(C(C)C)c(OCC(=O)O[C@H]2CC[C@H](NCc3cc(Br)cc(Br)c3N)CC2)c1 [E/6006, N-(2-amino-3,5-dibromobenzyl)-trans-4-amino-1-(thymolglycolyl)cyclohexane]	400	1680	380	197	–	540	19000	3900
Cc1ccc(C(C)C)cc1OCC(=O)O[C@H]1CC[C@H](NCc2cc(Br)cc(Br)c2N)CC1 [E/6007, N-(2-amino-3,5-dibromobenzyl)-trans-4-amino-1-(carvacrolglycolyl)cyclohexane]	410	1700	390	190	–	530	18500	3900
